{"source": "patent US6372297B1", "about": "“Wood preservative oxathiazines” (Uniroyal Chemical Company, Inc., priority 1993, dated 2002)", "key": {"[1]": {"tested_on": "molds and blue-stain fungi", "assay": "In vitro activity against molds and blue-stain fungi, poison plate assay (MIC)", "format": "cell-based", "settings": "malt extract agar, complete inhibition", "experimental": "The effect of the representative compounds on the growth of certain molds and blue-strain fungi were determined using a poison plate assay according to the following procedure: The solutions of the representative compounds prepared above were further diluted with sterile water to desired concentrations and poured into Petri dishes. Malt extract agar medium was then added aseptically to the Petri dishes and to Petri dishes containing no compound (controls). The Petri dishes were then shaken to provide a uniform distribution of the agar medium. Each Petri dish containing compound and each control Petri dish, was then inoculated with a fungus and incubated for a period of time sufficient to permit complete growth of the fungus in the respective control Petri dish. The Petri dishes containing compound were then examined to determine the amount of inhibition of fungi for each concentration of compound tested."}, "[2]": {"tested_on": "blue-stain fungi and molds", "assay": "Activity against blue-stain fungi and molds in a stick test (threshold concentrations)", "settings": "beech sticks, 22° C., 90% relative humidity", "summary_of_the_method": "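Wood sticks soaked 3 h in compound serially diluted in 50% ethanol, dried, then inoculated with fungal or spore suspension. Incubated at 22° C and 90% relative humidity until untreated controls grew, then growth scored 0 (none) to 4 (>50% surface covered).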"}}, "note": "Like-named read-outs stand apart in the source and are kept apart here.", "data": [{"compound": "O=S1(=O)CCON=C1c1ccc(Cl)s1", "note": "[Compound 61, 3-(5-chloro-2-thienyl)-5,6-dihydro-1,4,2-oxathiazine-4,4-dioxide]", "values": [{"measurement": "MIC", "setting": "[1]; A. amstelodami, read-out: MIC (ppm) against A. amstelodami", "result": 5, "unit": "µg/mL"}, {"measurement": "MIC", "setting": "[1]; Aspergillus niger, A. niger, read-out: MIC (ppm) against A. niger", "result": "< 1", "unit": "µg/mL"}, {"measurement": "MIC", "setting": "[1]; Aspergillus versicolor, A. versicolor, read-out: MIC (ppm) against A. versicolor", "result": 2.5, "unit": "µg/mL"}, {"measurement": "MIC", "setting": "[1]; Aureobasidium pullulans, A. pullulans, read-out: MIC (ppm) against A. pullulans", "result": 10, "unit": "µg/mL"}, {"measurement": "MIC", "setting": "[1]; C. pilifera, read-out: MIC (ppm) against C. pilifera", "result": 2.5, "unit": "µg/mL"}, {"measurement": "MIC", "setting": "[1]; Cladosporium cladosporioides, C. cladosporioides, read-out: MIC (ppm) against C. cladosporioides", "result": 10, "unit": "µg/mL"}, {"measurement": "MIC", "setting": "[1]; Fusarium solani, F. solani, read-out: MIC (ppm) against F. solani", "result": 5, "unit": "µg/mL"}, {"measurement": "MIC", "setting": "[1]; Geotrichum candidum, G. candidum, read-out: MIC (ppm) against G. candidum", "result": 10, "unit": "µg/mL"}, {"measurement": "MIC", "setting": "[1]; P. purpurogenum, read-out: MIC (ppm) against P. purpurogenum", "result": 5, "unit": "µg/mL"}, {"measurement": "MIC", "setting": "[1]; P. violacea, read-out: MIC (ppm) against P. violacea", "result": 25, "unit": "µg/mL"}, {"measurement": "MIC", "setting": "[1]; Paecilomyces variotii, P. variotii, read-out: MIC (ppm) against P. variotii", "result": 5, "unit": "µg/mL"}, {"measurement": "MIC", "setting": "[1]; S. atra, read-out: MIC (ppm) against S. atra", "result": 2.5, "unit": "µg/mL"}, {"measurement": "MIC", "setting": "[1]; S. entoxylina, read-out: MIC (ppm) against S. entoxylina", "result": 10, "unit": "µg/mL"}, {"measurement": "MIC", "setting": "[1]; Trichoderma viride, T. viride, read-out: MIC (ppm) against T. viride", "result": 10, "unit": "µg/mL"}, {"measurement": "MIC", "setting": "[1]; U. atrum, read-out: MIC (ppm) against U. atrum", "result": 10, "unit": "µg/mL"}, {"measurement": "Threshold concentration (ppm), A. niger, score 0", "setting": "[2]; A. niger, minimum concentration to obtain score 0", "result": "<250", "unit": "ppm"}, {"measurement": "Threshold concentration (ppm), A. niger, score 1-2", "setting": "[2]; A. niger, minimum concentration to obtain score 1-2", "result": "<250", "unit": "ppm"}, {"measurement": "Threshold concentration (ppm), Aureobasidium, score 0", "setting": "[2]; Aureobasidium, minimum concentration to obtain score 0", "result": ">1000", "unit": "ppm"}, {"measurement": "Threshold concentration (ppm), Aureobasidium, score 1-2", "setting": "[2]; Aureobasidium, minimum concentration to obtain score 1-2", "result": "250-500 ppm"}, {"measurement": "Threshold concentration (ppm), Sclerophoma, score 0", "setting": "[2]; Sclerophoma, minimum concentration to obtain score 0", "result": 100, "unit": "ppm"}, {"measurement": "Threshold concentration (ppm), Sclerophoma, score 1-2", "setting": "[2]; Sclerophoma, minimum concentration to obtain score 1-2", "result": "<50", "unit": "ppm"}, {"measurement": "Threshold concentration (ppm), Trichoderma, score 0", "setting": "[2]; Trichoderma, minimum concentration to obtain score 0", "result": 2500, "unit": "ppm"}, {"measurement": "Threshold concentration (ppm), Trichoderma, score 1-2", "setting": "[2]; Trichoderma, minimum concentration to obtain score 1-2", "result": "1000-2500 ppm"}, {"measurement": "melting point", "result": "113 to 114", "unit": "°C"}]}]}
